Results on 77 molecules are retold here after PubChem BioAssay AID485374 (Sanford-Burnham Center for Chemical Genomics, 2010).

Structures are written as SMILES. “And” between values parts separate entries of the source, which are not always exact repeats. Equal entries are not always repeated. The source made the active and inactive calls. How the calls were made is not given here.

A short description of this experiment: inhibitors of enzymatic SUMO conjugation, SAR follow-up, biochemical, AlphaScreen (AID 485374). Particulars: AlphaScreen biochemical SUMOylation assay. A general note: Bead proximity is the source of the signal in Alpha formats.
On to `CCCCn1c(NC(=O)c2ccccc2)c(S(=O)(=O)c2ccc(C)cc2)c2nc3ccccc3nc21`, for which the IC50 (usually the concentration at which inhibition is half-maximal) is 9.52 µM and 6.5 µM.

For `CCCCn1c(NC(=O)c2ccc(OC)cc2)c(S(=O)(=O)c2ccc(C)cc2)c2nc3ccccc3nc21`, the IC50 was 8.08 µM. In the case of `COc1cc(/C=C2\C(=O)N(c3ccccc3)N=C2C)ccc1OC(=O)c1cccs1` it was 15.8 µM; in that of `COC(=O)C1=C(C(=O)OC)C2([C@H](Cc3ccccc3)Nc3ccccc3)C=CC1O2` (some centres not stated), 5.04 µM; in that of `CCCCn1c(NC(=O)c2ccc(F)cc2)c(S(=O)(=O)c2ccc(C)cc2)c2nc3ccccc3nc21`, 6.24 µM. Under `COC(=O)C1=C(C(=O)OC)C2([C@H](C)Nc3ccccc3)C=CC1O2` (some centres not stated) stands 23.9 µM. As for `COC(=O)C=C(NC(CO)(CO)CO)C(=O)OC`, the IC50 is > 100 µM (inactive). As for `COc1ccc2c(c1)C(NC(C)=O)C(=O)N2CCN1CCOCC1` (configuration not stated), the half-maximal inhibitory concentration (IC50) was 5.02 µM.

Consider `COCCNC(=O)c1c(NC(=O)c2ccccc2)n(Cc2ccccc2)c2nc3ccccc3nc12`, for which the IC50 is 51.3 µM. Under `COc1cc(/C=C2\C(=O)N(c3ccccc3)N=C2C)ccc1O` stands 21.1 µM and 25.5 µM; under `C=CC[C@@H](Nc1ccc(OC)cc1)C12C=CC(O1)C(C(=O)OC)=C2C(=O)OC` (some centres not stated), 22.3 µM; under `COC(=O)C1=C(C(=O)OC)C2([C@H](Cc3ccccc3)Nc3ccc(OC)cc3)C=CC1O2` (some centres not stated), 13 µM. Take `COC(=O)C1=C(C(=O)OC)C2([C@@H](C)Nc3ccccc3)C=CC1O2` (some centres not stated): the IC50 is 7.79 µM. Under `CCCCn1c(NC(=O)c2ccco2)c(S(=O)(=O)c2ccc(C)cc2)c2nc3ccccc3nc21` stands 7.9 µM. Under `COC(=O)C1=C(C(=O)OC)C2([C@@H](Cc3ccc(C)cc3)Nc3ccccc3)C=CC1O2` (some centres not stated) stands 0.369 µM; under `CCC(=O)Nc1c(S(=O)(=O)c2ccccc2)c2nc3ccccc3nc2n1Cc1ccccc1`, 43.4 µM; under `COC(=O)C1=C(C(=O)OC)C2([C@@H](C)Nc3ccc(Cl)cc3)C=CC1O2` (some centres not stated), 18.2 µM. As to `CCC[C@@H](Nc1ccccc1)C12C=CC(O1)C(C(=O)OC)=C2C(=O)OC` (some centres not stated), the IC50 was 0.533 µM. In the case of `COC(=O)C1=C(C(=O)OC)C2([C@@H](Cc3ccccc3)Nc3ccc(Cl)cc3)C=CC1O2` (some centres not stated) it was 0.713 µM; in that of `C=CC[C@H](Nc1ccc(Cl)cc1)C12C=CC(O1)C(C(=O)OC)=C2C(=O)OC` (some centres not stated), 4.18 µM. Turning to `C=C[C@@H](Nc1ccccc1)C12C=CC(O1)C(C(=O)OC)=C2C(=O)OC` (some centres not stated), the IC50 was 7.23 µM.

Regarding `N#Cc1c(NC(=O)c2ccccc2Cl)n(C2CCCCC2)c2nc3ccccc3nc12`, the concentration for half-maximal inhibition (IC50) is 1.95 µM. Take `COC(=O)C1=C(C(=O)OC)C2([C@H](C)Nc3ccc(Cl)cc3)C=CC1O2` (some centres not stated): the IC50 is 11.5 µM.

Take `COC(=O)C1=C(C(=O)OC)C2(C(Cc3ccc(F)cc3)Nc3ccccc3)C=CC1O2` (configuration not stated): the IC50 was 0.527 µM. In the case of `C=CC[C@@H](N(Cc1ccccc1)/C(=C\C(=O)OC)C(=O)OC)C12C=CC(O1)C(C(=O)OC)=C2C(=O)OC` (some centres not stated) it was 21.3 µM.

`Cc1cc(C)c2c(c1)C(=O)C(=O)N2CCN1CCOCC1`: the IC50 is > 100 µM (inactive). Under `COC(=O)C1=C(C(=O)OC)C2([C@H](Cc3ccccc3)Nc3ccc(C)cc3)C=CC1O2` (some centres not stated) stands 7.19 µM; under `CCCCn1c(NC(=O)c2ccc(F)cc2)c(C#N)c2nc3ccccc3nc21`, 0.757 µM; under `COC(=O)C1=C(C(=O)OC)C2([C@@H](Cc3ccccc3)Nc3ccccc3)C=CC1O2` (some centres not stated), 0.329 µM. Under `COc1cc(/C=C2\C(=O)N(c3ccccc3)N=C2C)ccc1OCc1ccccc1` stands > 100 µM (inactive); under `CCCCn1c(NC(=O)CC)c(S(=O)(=O)c2ccc(C)cc2)c2nc3ccccc3nc21`, 33.1 µM; under `CC(=O)NC1C(=O)N(CCN2CCOCC2)c2ccc(C)cc21` (configuration not stated), > 100 µM (inactive).

Turning to `CCCCCn1c(NC(=O)c2ccco2)c(C(=O)OCC)c2nc3ccccc3nc21`, the IC50 was 4.9 µM. As for `COC(=O)[C@@H]1C2CCC([C@@H](Cc3ccccc3)Nc3ccccc3)(O2)[C@@H]1C(=O)OC` (some centres not stated), the IC50 is > 100 µM (inactive). Consider `COC(=O)C1=C(C(=O)OC)C2([C@H](Cc3ccc(C)cc3)Nc3ccccc3)C=CC1O2` (some centres not stated), for which the IC50 is 2.19 µM. In the case of `COCCn1c(NC(=O)c2ccc(Cl)cc2)c(S(=O)(=O)c2ccc(C)cc2)c2nc3ccccc3nc21`, the concentration for half-maximal inhibition (IC50) is 6.59 µM. With `COC(=O)C1=C(C(=O)OC)C2([C@H](Cc3ccccc3)Nc3ccc(Cl)cc3)C=CC1O2` (some centres not stated), the IC50 is 2.56 µM. In the case of `C=CC[C@H](Nc1ccc(C)cc1)C12C=CC(O1)C(C(=O)OC)=C2C(=O)OC` (some centres not stated) it was 11.7 µM; in that of `C=CCC(Nc1ccccc1)C12C=CC(O1)C(C(=O)OC)=C2C(=O)OC` (configuration not stated), 1.36 µM; in that of `C=CC[C@H](Nc1ccc(OC)cc1)C12C=CC(O1)C(C(=O)OC)=C2C(=O)OC` (some centres not stated), 17.7 µM. Take `COC(=O)C1=C(C(=O)OC)C2(C(Cc3ccc(OC(F)(F)F)cc3)Nc3ccccc3)C=CC1O2` (configuration not stated): the IC50 was 0.611 µM. For the molecule `CCCCn1c(N)c(S(=O)(=O)c2ccc(C)cc2)c2nc3ccccc3nc21`, the IC50 was > 100 µM (inactive). Under `C=CC[C@@H](Nc1ccccc1)C12C=CC(O1)C(C(=O)OC)=C2C(=O)OC` (some centres not stated) stands 1.8 µM; under `C=CC[C@H](Nc1ccccc1)C12C=CC(O1)C(C(=O)OC)=C2C(=O)OC` (some centres not stated), 5.95 µM; under `CCCCn1c(NC(=O)c2cccc(Cl)c2)c(C#N)c2nc3ccccc3nc21`, 1.62 µM. Under `N#Cc1c(NC(=O)c2ccccc2Cl)n(Cc2ccccc2)c2nc3ccccc3nc12` stands 2.44 µM; under `CCCN1C(=O)C(NC(C)=O)c2cc(OC)ccc21` (configuration not stated), > 100 µM (inactive); under `COC(=O)C1=C(C(=O)OC)C2([C@@H](C)Nc3ccc(C)cc3)C=CC1O2` (some centres not stated), 35.1 µM. `COc1ccc2c(c1)C(NC(C)=O)C(=O)N2CCOc1ccccc1` (configuration not stated): the IC50 is 70.2 µM. With `CCCCn1c(NC(=O)c2ccccc2)c(C#N)c2nc3ccccc3nc21`, the IC50 is 2.93 µM and 1.2 µM. Under `C=CC[C@@H](Nc1ccc(Cl)cc1)C12C=CC(O1)C(C(=O)OC)=C2C(=O)OC` (some centres not stated) stands 3.84 µM. As to `COC(=O)C1=C(C(=O)OC)C2([C@@H](Cc3ccc(OC)cc3)Nc3ccccc3)C=CC1O2` (some centres not stated), the IC50 is 0.614 µM. Regarding `C=CC[C@@H](Nc1ccc(C)cc1)C12C=CC(O1)C(C(=O)OC)=C2C(=O)OC` (some centres not stated), the IC50 is 12.4 µM. Regarding `CCCCn1c(NC(=O)c2ccccc2Cl)c(C#N)c2nc3ccccc3nc21`, the IC50 is 20.1 µM. For the molecule `S=c1[nH]nc(-c2cc(-c3ccccc3)n[nH]2)n1N=Cc1ccc(Br)s1`, the IC50 was 2.07 µM. In the case of `CCCCn1c(NC(=O)c2ccc(Cl)cc2)c(C#N)c2nc3ccccc3nc21` it was 2.1 µM; in that of `CCCCn1c(N)c(C#N)c2nc3ccccc3nc21`, 13.3 µM.

Turning to `CCCC1=NN(c2ccccc2)C(=O)/C1=C\c1ccc(O)cc1`, the IC50 is 19.2 µM.

Take `COC(=O)C1=C(C(=O)OC)C2([C@@H](C)Nc3ccc(OC)cc3)C=CC1O2` (some centres not stated): the concentration for half-maximal inhibition (IC50) is 55.6 µM. Under `c1ccc(CC(Nc2ccccc2)c2ccco2)cc1` (configuration not stated) stands > 100 µM (inactive); under `C=CC[C@H](N(Cc1ccccc1)/C(=C\C(=O)OC)C(=O)OC)C12C=CC(O1)C(C(=O)OC)=C2C(=O)OC` (some centres not stated), 15.1 µM; under `CCCCn1c(NC(C)=O)c(C#N)c2nc3ccccc3nc21`, 8.11 µM. In the case of `CCCCn1c(NC(=O)c2ccco2)c(C#N)c2nc3ccccc3nc21` it was 3.45 µM. Under `CCCCn1c(NC(=O)c2ccccc2Cl)c(S(=O)(=O)c2ccccc2)c2nc3ccccc3nc21` stands 5.63 µM; under `C=C[C@H](Nc1ccccc1)C12C=CC(O1)C(C(=O)OC)=C2C(=O)OC` (some centres not stated), 10.4 µM.

With `COc1ccc2c(c1)C(NC(C)=O)C(=O)N2CC1COc2ccccc2O1` (configuration not stated), the IC50 is 66.3 µM. Take `CCCCNC(=O)c1c(NC(=O)c2ccccc2)n(Cc2ccccc2)c2nc3ccccc3nc12`: the IC50 was 91.1 µM. For `COc1ccc2c(c1)C(NC(C)=O)C(=O)N2CCc1ccccc1` (configuration not stated), the IC50 is > 100 µM (inactive). Consider `COc1ccc(CN2C(=O)C(NC(C)=O)c3ccccc32)cc1` (configuration not stated), for which the IC50 was > 100 µM (inactive). In the case of `Nc1c(C(=O)NCc2ccco2)c2nc3ccccc3nc2n1Cc1ccccc1` it was 41.2 µM; in that of `COc1ccc2c(c1)C(=O)C(=O)N2CCN1CCOCC1`, 76.8 µM; in that of `CCC[C@H](Nc1ccccc1)C12C=CC(O1)C(C(=O)OC)=C2C(=O)OC` (some centres not stated), 2.87 µM.

Take `COC(=O)C1=C(C(=O)O)C2C=CC1([C@@H](Cc1ccccc1)Nc1ccccc1)O2` (some centres not stated): the IC50 was 2.87 µM. Under `COC(=O)C1=C(C(=O)OC)C2([C@@H](Cc3ccccc3)Nc3ccc(OC)cc3)C=CC1O2` (some centres not stated) stands 4.87 µM; under `C=CCC(c1ccco1)N(Cc1ccccc1)/C(=C/C(=O)OC)C(=O)OC` (configuration not stated), > 100 µM (inactive); under `CCCCn1c(NC(=O)C2CCCCC2)c(C#N)c2nc3ccccc3nc21`, 2.39 µM. Under `COC(=O)C1=C(C(=O)OC)C2([C@@H](Cc3ccccc3)Nc3ccc(C)cc3)C=CC1O2` (some centres not stated) stands 2.96 µM.
